# Laboratory results from patent US20250380696A1, “METHOD FOR CONTROLLING UNDESIRED PLANTS AND PROMOTING GROWTH OF USEFUL PLANTS” (ISHIHARA SANGYO KAISHA, LTD., priority 2022, published 2025).
# Read-outs that look alike come from different tables or passages of the source.
# Tested on: Italian ryegrass (Lolium multiflorum)
# Test: (16) Herbicidal effect test (comparative test), pot, spray at 2.5 to 3.0 leaf stage
# Assay type: in vivo
# Details: Lolium multiflorum, read-out: Growth inhibition rate (%) Measured value
# From the text: [formula] • X: growth inhibition rate when treated with α (g/ha) of compound A, • Y: growth inhibition rate when treated with β (g/ha) of compound B, • E: growth inhibition rate expected when treated with α (g/ha) of compound A and β (g/ha) of compound B (expected value).
# Upland soil was put in a 1/1,000,000 hectare pot, and seeds of Italian ryegrass (Lolium multiflorum) were sown. When Italian ryegrass reached 2.5 to 3.0 leaf stage, a water-based suspension containing tiafenacil as the active ingredient, prepared by a conventional method for preparing a water-based suspension, a water-based suspension containing saflufenacil as the active ingredient (tradename: Sharpen, manufactured by BASF), a wettable powder containing fomesafen as the active ingredient, prepared by a conventional method for preparing a wettable powder, an emulsifiable concentrate containing fluthiacet-methyl as the active ingredient (tradename: Attackshot emulsifiable concentrate, manufactured by MARUWA Biochemical Co., Ltd.), a dry flowable containing carfentrazone-ethyl as the active ingredient (tradename: Task DF, manufactured by ISHIHARA SANGYO KAISHA, LTD.) or a water-based suspension containing pyraflufen-ethyl as the active ingredient (tradename: ECOPART flowable, manufactured by NIHON NOHYAKU CO., LTD.), and an emulsifiable concentrate containing S-metolachlor as the active ingredient (tradename: Dual Gold, manufactured by Syngenta) or a wettable powder containing metribuzin as the active ingredient (tradename: SENCOR wettable powder, manufactured by Bayer Crop Science), were diluted with water (in an amount corresponding to 200 liter per hectare) containing 0.5 vol % of an agricultural spreader (tradename: Destiny HC, manufactured by Winfield Solutions, LLC.) and sprayed by a small spray gun (model: W-101-132G, manufactured by ANEST IWATA Corporation). On the 4th day after spraying, the state of growth of the Italian ryegrass was visually observed, and the growth inhibition rate (%) was obtained in accordance with the evaluation standards described in the above (1) herbicidal effect test, and the results are shown in Table 16. Further, the expected value of the growth inhibition rate (%) was calculated in accordance with the Colby's formula described in the above (1) herbicidal effect test, and the results are also shown in Table 16.
# [1] = Dose 12.5 g/ha, 4th day after spraying
Compound,inhibition at 12.5 g/ha [1],inhibition at 12.5 g/ha
CS(=O)(=O)NC(=O)c1cc(Oc2ccc(C(F)(F)F)cc2Cl)ccc1[N+](=O)[O-] [fomesafen],8%,
CC(C)N(C)S(=O)(=O)NC(=O)c1cc(-n2c(=O)cc(C(F)(F)F)n(C)c2=O)c(F)cc1Cl [saflufenacil],33%,
CCOC(=O)C(Cl)Cc1cc(-n2nc(C)n(C(F)F)c2=O)c(F)cc1Cl (centres unmarked) [carfentrazone-ethyl],,12%
CCOC(=O)COc1cc(-c2nn(C)c(OC(F)F)c2Cl)c(F)cc1Cl [pyraflufen-ethyl],,25%
COC(=O)CSc1cc(/N=c2\sc(=O)n3n2CCCC3)c(F)cc1Cl [fluthiacet-methyl],12%,
